Source: article PMC5923171, “Novel Zinc-Attenuating Compounds as Potent Broad-Spectrum Antifungal Agents with In Vitro and In Vivo Efficacy” (Antimicrobial Agents and Chemotherapy, 2018)
pKd: −log10 of the molar value. Read-outs that look alike come from different tables or passages of the source. One block for each compound: values may come before it.

Legend:
[1] = cited from earlier work
[2] = system: A. fumigatus; design: method as in PMID 27401578; settings: monotherapy; cited from earlier work
[3] = system: C. krusei ATCC 6258; assay: Antifungal susceptibility testing (MIC); assay type: cell-based, Candida krusei; settings: Pichia kudriavzevii, ATCC6258; at least 50% growth inhibition, RPMI, 24 h, 34°C
Procedure: (§1) Antifungal susceptibility testing was carried out as described previously ([38], [39]), with a few modifications. Briefly, for each yeast or mold growth inhibition assay, frozen stocks of yeast cells or spores were diluted to a final concentration of 0.5 × 10^5 to 2.5 × 10^5 CFU/ml in sterile water. ZAC989, ZAC307, and ZAC623 were dissolved in DMSO to 10 mM stocks from which half-log serial dilutions were prepared. Growth assays were subsequently performed by pipetting 3 μl of compound dissolved in DMSO (giving a final concentration of 1.5% DMSO), 100 μl of cell-spore suspension, and 97 μl of 2× RPMI medium (20.8 g/liter of RPMI 1640 medium, 69.06 g/liter of morpholinepropanesulfonic acid [MOPS], 36 g/liter of glucose) into a microtiter plate that was incubated for 24 h (yeasts) or 48 to 72 h (molds) at 34°C. Fungal growth was determined spectrophotometrically by optical density reading of each well at a wavelength of 492 nm on a Victor X5 (Perkin-Elmer) plate reader. […] Standard errors between repeated experiments were generally below 5%. The growth effect of exogenous addition of various divalent metals was evaluated by performing the antifungal susceptibility assay in the presence of 5 μM ZAC989 or ZAC307 and with increasing concentrations (0.003 to 50 μM) of ZnSO4, CuSO4, (NH4)2Fe(SO4)2, MgCl2, and CaCl2.

[4] = Fluorescence-based competition assay using FluoZin-3 (compound-Zn2+ dissociation constant); assay type: binding; settings: FluoZin-3 competition, PBS pH 7.4, room temperature; read-out: Compound-Zn^2+ KD
Procedure: The dissociation constant (Kd) of zinc to zinc-attenuating compounds was determined at room temperature using FluoZin-3 (F24194; […] Testing buffer consisted of PBS (pH 7.4) with 200 nM ZnCl2 and 500 nM FluoZin-3. In a microtiter plate, 98 μl of testing buffer was mixed with 2 μl of compound at a range of concentrations to determine the half-maximal inhibitory concentration (IC50). Testing plates were incubated for 2 min before being read at an excitation wavelength of 485 nm and an emission wavelength of 516 nm with a Fluoroskan Ascent microplate fluorometer (Thermo Fisher Scientific).

[5] = system: C. albicans SC5314; assay: Antifungal susceptibility testing (MIC); assay type: cell-based, Candida albicans
Procedure: as §1

[6] = system: C. parapsilosis ATCC 22019; assay: Antifungal susceptibility testing (MIC); assay type: cell-based, Candida parapsilosis; settings: Lodderomyces parapsilosis, ATCC22019; at least 50% growth inhibition, RPMI, 24 h, 34°C
Procedure: as §1

[7] = system: C. albicans; assay: Resistance study (repeated exposure); assay type: cell-based, Candida albicans; settings: SDwoz medium, 36-day period, 22 passages
Procedure: The propensity for resistance development was investigated as also described previously ([41]), but with the following modifications. […] Over a 36-day period, culture aliquots of 100 μl were periodically (every 1 to 2 days) transferred (passaged) to new culture tubes with 900 μl of fresh medium and fresh compound. […] Cells were passaged a total of 22 times, and cultures were periodically tested for antifungal susceptibility by following the protocol for antifungal susceptibility testing, as described above.

[8] = system: Candida albicans SC5314; assay: In vivo fungal kidney burden candidiasis model; design: species or system BALB/c mice; settings: fluconazole 3 mg/kg p.o.
Procedure: A murine model of systemic candidiasis was established according to a previously described method ([44]). BALB/c mice were infected with a 0.1-ml inoculum (1 × 10^5 to 5 × 10^5 CFU) of Candida albicans SC5314 cells by the intravenous route on day 0. Compounds were tested at doses of 60 mg/kg. Administration of compound was initiated 24 h prior (day −1) to infection (day 0) by the intraperitoneal route, dosing twice a day for 4 days (day −1 to day 2). ZAC307 was also evaluated with administration of the compounds given after the infection at day 0 (no pretreatment) and following dosing twice a day for 3 days (days 0 to 2). Fluconazole was used as a comparator drug. Six mice were used for each group, and the untreated control group was exposed to the vehicle alone. ZAC989 and ZAC307 were formulated by taking 60 mg of compound and adding this to 2 ml and 4 ml of 0.1 N NaOH, respectively. After mixing and sonication of the resulting solutions, 4 ml of purified water was added. The pH was adjusted to 9.0 with 0.1 N HCl solution, followed by the addition of 90 mg of NaCl. The solutions were then diluted to 10 ml and filtered through a 0.22-μm polyvinylidene difluoride (PVDF) filter. Sample collection and processing were performed as follows. Twelve hours after the last dose, all treated and untreated animals were sacrificed by cervical dislocation and kidneys were collected in 3 ml of sterile normal saline. The samples were homogenized, serially diluted, and plated on Sabouraud dextrose agar (SDA). SDA plates were incubated for 24 to 48 h at 35°C, and CFU were enumerated and reported as log CFU/kidney. The endpoint was mean log CFU of fungi in kidneys of treated animals compared to that of untreated animals. The study was conducted in conformance with an application submitted to the Committee for the Purpose of Control and Supervision of Experiments on Animals (CPCSEA), New Delhi, India, after approval from the Institutional Animal Ethics Committee (IAEC).

[9] = system: C. albicans SC5314; assay: Time-kill assay; assay type: cell-based, Candida albicans; settings: 0.5 μg/ml AMB, 3.6 μg/ml ZAC989, 4.4 μg/ml EDTA, 4.2 μg/ml TPEN; up to 24 h
Procedure: C. albicans SC5314 cells (10^5 CFU/ml) were incubated in 10 ml of RPMI medium at 30°C with gentle agitation (150 rpm) in the presence of EDTA (15 μM), TPEN (10 μM), ZAC989 (10 μM), or AMB (0.5 μM). At the desired time points (0, 3, 5.5, and 24 h), a 100-μl aliquot was removed for each test condition and serially diluted (10-fold) in saline (0.9% NaCl), and 30 μl of each dilution was plated on YPD agar plates. The colony count on each YPD plate was determined after incubation at 30°C for 48 h ([40]). C. albicans cells treated with DMSO (1%, vol/vol) served as a control.

SMILES: COc1ccc(N(CC(=O)O)CC(=O)O)c(OCCOc2cc(-c3c4cc(F)c(=O)cc-4oc4cc(O)c(F)cc34)ccc2NCC(=O)O)c1 [FluoZin-3]
pKd ([1]; read-out: Kd (FluoZin-3–Zn^2+)): 7.82

SMILES: c1cnc2c(c1)ccc1cccnc12 [phenanthroline]
survival and fungal burden [2]: significant improvements in survival with concomitant reduction in fungal burden

MIC [3]: > 54 µg/mL
pKd [4]: < 5.22
MIC ([5]; Candida albicans, SC5314, 24 h, at least 50% growth inhibition, RPMI, 24 h, 34°C, read-out: MIC): > 54 µg/mL
MIC [6]: > 54 µg/mL
SMILES: Cc1cc(N)n(-c2cc(N3CC[C@H](Oc4cnccc4C#N)C3)ncn2)n1 [ZAC623, 3-[(3S)-1-[6-(5-amino-3-methyl-pyrazol-1-yl)pyrimidin-4-yl]pyrrolidin-3-yl]oxypyri-dine-4-carbonitrile]
growth-inhibitory activity (in words) [5]: did not display growth-inhibitory activity

SMILES: OC(Cn1cncn1)(Cn1cncn1)c1ccc(F)cc1F [Fluconazole, fluconazole, reference compound]
change in the MIC after repeated exposure [7]: significant increase in the MIC
Mean log CFU/kidney [8]: 3.02 ± 0.22 log CFU/kidney
Mean log CFU/kidney reduction ([8]; vs untreated control): 2.78 log CFU/kidney

SMILES: C[C@@H]1[C@H](O)[C@@H](C)/C=C/C=C/C=C/C=C/C=C/C=C/C=C/[C@H](O[C@@H]2O[C@H](C)[C@@H](O)[C@H](N)[C@@H]2O)C[C@@H]2O[C@](O)(C[C@@H](O)C[C@@H](O)[C@H](O)CC[C@@H](O)C[C@@H](O)CC(=O)O[C@H]1C)C[C@H](O)[C@H]2C(=O)O [amphotericin B]
time-kill activity (fungistatic or fungicidal) [9]: fungicidal activity after 3 h of exposure

SMILES: COc1cc(O)c(-c2nc3c(CNCc4ccccn4)cccc3o2)cc1OC [Zinbo-5]
pKd ([1]; read-out: affinity constant for zinc): 8.66
